Assays:
[1] = target: T1, UGT2B4 (Homo sapiens, UniProt P06133); set-up: with alamethicin-pretreated HLMs (0.5 mg/mL); tissue Sekisui-XenoTech; host or cells: pooled human liver microsomes (200 donors); conditions: predicted by combining in vitro phenotyping and human ADME data; cited from earlier work
T1 sequence (P06133 24-528): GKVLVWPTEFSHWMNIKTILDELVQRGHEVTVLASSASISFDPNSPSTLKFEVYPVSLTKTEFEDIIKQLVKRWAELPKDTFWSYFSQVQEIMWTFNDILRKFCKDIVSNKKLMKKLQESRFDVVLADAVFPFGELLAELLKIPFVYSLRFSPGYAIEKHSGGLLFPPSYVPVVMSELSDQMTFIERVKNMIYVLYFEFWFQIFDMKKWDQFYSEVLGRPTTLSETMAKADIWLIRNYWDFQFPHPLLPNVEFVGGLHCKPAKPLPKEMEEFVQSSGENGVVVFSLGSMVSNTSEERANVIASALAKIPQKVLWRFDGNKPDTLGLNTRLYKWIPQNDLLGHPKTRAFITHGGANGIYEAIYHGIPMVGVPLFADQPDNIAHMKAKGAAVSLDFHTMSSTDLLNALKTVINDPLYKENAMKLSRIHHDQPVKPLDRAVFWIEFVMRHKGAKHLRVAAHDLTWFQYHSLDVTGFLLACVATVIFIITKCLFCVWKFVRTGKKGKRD

[2] = test system: human hepatocytes; conditions: both, 10 μmol/L
[3] = target: T2, UGT1A9 (Homo sapiens, UniProt O60656); experiment: PBPK elimination inputs (retrograde model, fm, KM sensitivity); conditions: PBPK input
T2 sequence (O60656 26-530): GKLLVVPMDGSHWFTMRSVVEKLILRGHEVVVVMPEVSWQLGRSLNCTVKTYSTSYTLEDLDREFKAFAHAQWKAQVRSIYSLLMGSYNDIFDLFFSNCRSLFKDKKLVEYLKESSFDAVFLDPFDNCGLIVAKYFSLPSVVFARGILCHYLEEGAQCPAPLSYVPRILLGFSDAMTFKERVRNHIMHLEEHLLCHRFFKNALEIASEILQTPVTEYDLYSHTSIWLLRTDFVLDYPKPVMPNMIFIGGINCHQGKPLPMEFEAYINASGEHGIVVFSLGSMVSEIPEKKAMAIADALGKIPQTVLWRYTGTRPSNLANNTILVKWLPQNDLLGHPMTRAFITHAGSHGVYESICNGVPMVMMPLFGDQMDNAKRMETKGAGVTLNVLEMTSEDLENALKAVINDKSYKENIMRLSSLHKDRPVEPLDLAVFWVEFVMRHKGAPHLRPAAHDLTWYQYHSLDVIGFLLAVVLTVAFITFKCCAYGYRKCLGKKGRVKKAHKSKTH

[4] = target: T1, UGT2B4; experiment: as above; conditions: PBPK input
[5] = test system: CYP3A4; conditions: predicted by combining in vitro phenotyping and human ADME data; cited from earlier work
[6] = target: CYP2C9 (Homo sapiens, UniProt P11712); experiment: Reversible CYP inhibition in human liver microsomes
Sequence of CYP2C9 (P11712 whole entry): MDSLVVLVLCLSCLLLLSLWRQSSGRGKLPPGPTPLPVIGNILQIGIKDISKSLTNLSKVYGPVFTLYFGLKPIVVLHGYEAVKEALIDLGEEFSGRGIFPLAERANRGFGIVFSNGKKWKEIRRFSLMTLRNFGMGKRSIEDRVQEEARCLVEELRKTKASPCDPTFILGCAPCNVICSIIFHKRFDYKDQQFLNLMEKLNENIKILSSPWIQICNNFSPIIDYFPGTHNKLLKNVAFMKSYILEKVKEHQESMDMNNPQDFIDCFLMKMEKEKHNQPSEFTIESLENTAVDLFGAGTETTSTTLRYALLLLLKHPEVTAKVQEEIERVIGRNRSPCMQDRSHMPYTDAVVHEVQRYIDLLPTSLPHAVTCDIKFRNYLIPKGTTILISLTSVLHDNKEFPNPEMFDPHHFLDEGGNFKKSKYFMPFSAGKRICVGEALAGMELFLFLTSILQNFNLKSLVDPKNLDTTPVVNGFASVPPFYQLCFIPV

[7] = target: T2, UGT1A9; conditions: both, 20 min, pH 7.4
[8] = target: T3, CYP2C8 (Homo sapiens, UniProt P10632); experiment: Reversible CYP inhibition in human liver microsomes
T3 sequence (P10632 1-490): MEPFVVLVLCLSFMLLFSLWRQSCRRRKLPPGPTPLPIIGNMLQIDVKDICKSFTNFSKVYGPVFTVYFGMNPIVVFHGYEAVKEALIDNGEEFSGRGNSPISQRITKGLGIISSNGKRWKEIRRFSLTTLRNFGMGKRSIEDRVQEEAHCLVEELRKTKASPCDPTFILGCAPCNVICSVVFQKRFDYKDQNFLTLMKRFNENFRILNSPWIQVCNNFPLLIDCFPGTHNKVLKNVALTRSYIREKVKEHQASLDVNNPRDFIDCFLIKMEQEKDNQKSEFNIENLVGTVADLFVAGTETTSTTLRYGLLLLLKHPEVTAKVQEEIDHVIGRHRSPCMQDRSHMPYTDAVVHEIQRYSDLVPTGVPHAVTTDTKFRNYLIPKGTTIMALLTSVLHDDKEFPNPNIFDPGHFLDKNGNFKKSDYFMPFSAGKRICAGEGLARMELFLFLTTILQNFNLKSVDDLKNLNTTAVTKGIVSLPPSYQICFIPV

[9] = test system: CYP1A2; conditions: hepatocytes
Description: (§1) respectively; XenoTech) were treated once daily for 3 consecutive days and cultured according
(§2) to previously described methods.2-4 Each culture well was treated with supplemented modified Chee's medium (0.2 mL) containing 0.1% v/v d imethylsulfoxide (DM SO ; vehicle control),
(§3) μmol/L) or 1 of 3 known human CYP enzyme inducers (omeprazole 50 μmol/L, phenobarbital
Cultures were visualized with a
(§4) representative well from each treatment group was photographed with a PAXcam 5 (MIS, Inc.
(§5) Villa Park, IL, USA) digital camera to document morphological integrity.
(§6) β-mercaptoethanol (1:100), and the cell lysates were stored at −80°C. For each hepatocyte preparation, media from 3 wells per treatment group were aspirated, and 250 μL buf f er RLT was added to each well. The cell lysates were mixed by shaking (10 minutes at 800 rpm) and total RNA was isolated with a MagMAX-96 (Ambion/ Thermo Fisher Scientific) for Microarrays Kit using the RNeasy Mini Kit (Qiagen Inc., Germantown, MD, USA). The analysis of RNA integrity was carried out with the RNA 6000 Nano Assay Kit on an Agilent 2100 Bioanalyzer (Agilent Technologies, Inc., Santa Clara, CA, USA). […]
(§7) prepared samples were stored at −20°C prior to analysis by quantitative real-time (qRT)- […]

[10] = target: T2, UGT1A9; set-up: with alamethicin-pretreated HLMs (0.5 mg/mL); tissue Sekisui-XenoTech; host or cells: pooled human liver microsomes (200 donors); conditions: predicted by combining in vitro phenotyping and human ADME data; cited from earlier work
[11] = test system: CYP3A4; experiment: PBPK elimination inputs (retrograde model, fm); set-up: species or system human; conditions: PBPK input
[12] = test system: CYP2B6; conditions: hepatocytes
Description: as §1, §2, §3
Cultures were visualized with a
as §4, §5, §6, §7

[13] = target: T1, UGT2B4; conditions: both, 20 min, pH 7.4

O=C(c1cccnc1-c1ccncc1)N1CCC(O)(Cc2ccccc2)CC1 [Soticlestat]
fm by UGT2B4 [1]: 81.2%
metabolized by glucuronidation [2]: ~66%
oxidation via CYP3A [2]: ~33%
fmUGT1A9 [3]: 0.1
fmUGT2B4 [4]: 0.8
fm by CYP3A [5]: 9.5%
Ki [6]: 15.6 µM
fumic ([6]; human): 0.88
inhibition of CYP2C9 ([6]; microsomes): low double‐digit micromolar values
fm of total UGT mediated glucuronidation via UGT1A9 [7]: ~10%
Ki [8]: 14.5 µM
fumic ([8]; human): 0.98
inhibition of CYP2C8 ([8]; microsomes): low double‐digit micromolar values
induction of CYP1A2 [9]: nor did soticlestat induce
fm by UGT1A9 [10]: 9.3%
fmCYP3A [11]: 0.1
induction of CYP2B6 [12]: nor did soticlestat induce
fm of total UGT mediated glucuronidation via UGT2B4 [13]: ~90%
